# Marks after values point to notes of the source that are not given here.
# Tested on: chicken embryos
# Assay: Metabolic profiling of allantoic fluid (GC-MS, LC-MS, OPLS-DA)
# Type: in vivo, Gallus gallus domesticus
# Conditions: LC; for Mean concentration relative to control, feature 155.0353@0.6447272: suggested C3H10NO4P; for Mean concentration relative to control, feature 345.0497@1.1234403: suggested C10H12N5O7P; for Mean concentration relative to control, feature 337.0259@4.4213357: suggested C13H11N3O4S2; for Mean concentration relative to control, feature 344.1427@2.1164653: suggested C13H20N4O7; for Mean concentration relative to control, feature 331.184@6.373359: suggested C13H25N5O5; for Mean concentration relative to control, feature 361.2026@5.6644735: suggested C16H31N3O4S
# Method: Controls were injected with 20 μL vehicle only (DMSO).
# Plasma was collected and stored at -70°C.
# Metabolites in allantoic fluid and blood plasma were analyzed using gas chromatography-mass spectrometry (GC-MS) and liquid chromatography-mass spectrometry (LC-MS) as described in S1 Methods. Prior to GC-MS and LC-MS analysis, allantoic fluid (100 μL) and blood plasma (50 μL) were extracted. To each sample, 900 μL (allantoic fluid) or 450 μL (blood plasma) of extraction buffer (90/10 v/v methanol:water) including all internal standards were added. Standards for GC-MS were proline, succinic acid, glutamic acid, salicylic acid, alpha-ketoglutarate, putrescine, myristic acid, hexadecanoic acid, cholesterol, and sucrose. Standards for LC-MS were Val-Tyr-Val, Leu-enkephalin, sulfadimethoxine and reserpine. Samples were homogenized by shaking in a bead mill at a frequency of 30 Hz for 3 minutes and proteins were precipitated at +4°C on ice. The samples were centrifuged at +4°C, 14000 rpm, for 10 min. Then, 200 μL supernatant was transferred to a GC microvial and 200 μL was transferred to an LC microvial, and solvents were evaporated. Samples from the four replicate experiments were analyzed using in chronological order and within each replicate experiment the run order of the individual samples was randomized.
# Multivariate statistical analyses of metabolite profiles were performed using the software package SIMCA-P version 13.0 (Umetrics, Umeå, Sweden). Data was centered and scaled to variance 1 (UV scaling) prior to modelling. To reduce unintended systematic variation caused by sample processing and instrument drift, GC-MS and LC-MS metabolite amounts (expressed as the area under the chromatographic peak) were normalized by Orthogonal Partial Least Squares analysis (O2PLS) prior to multivariate data analysis. O2PLS finds common (predictive) and unique (orthogonal) variation in two data matrices. If applied to find the common variation between the data matrix containing the measured metabolite concentrations and a matrix containing only the internal standards, the only common (predictive) variation expected is due to the unintended systematic variation. By deleting the contribution of the predictive latent variables, that variation can be removed from the data. Models obtained after this normalization contain in general less latent variables, and this simplification helps when deciding on the number of latent variables to be used. Following normalization, GC-MS and LC-MS data were analyzed together. Initially, a global Principal Component Analysis (PCA) was performed to get an overview of groups and trends and to identify outliers. Projections to latent structures by means of Orthogonal Partial Least Squares Discriminant Analysis (OPLS-DA) was used to model the relationship between the X-matrix (metabolite concentrations) and the Y matrix (class, i.e. exposure group or sex), and to find x-variables that were related to class belonging. OPLS-DA is a supervised prediction and regression method that rotates the projection plane to find the maximum covariance between the data and the class assignment. All groups were first analyzed together in a 5-class OPLS-DA and then each exposure group was analyzed against the control group in a 2-class OPLS-DA. Sex differences were analyzed both using the whole data set and in each group separately using 2-class OPLS-DA, with females and males as the two classes. Only variables with 80% or more nonzero values were included in the statistical models. […] The validity of each model was also checked using CV-ANOVA (ANOVA of the cross-validated residuals). A significance level of p < 0.05 was used. For each model, R ^2 X, R ^2 Y and Q ^2 values were calculated, where R ^2 X is a measure of the fraction of x variation modeled in the extracted latent variables, R ^2 Y is a measure of the fraction of y variation modeled and Q ^2 is an estimate of the predictive ability of the model and is calculated by cross-validation. […]
compound,measurement,setting,value
"O=C(O)C(F)(F)C(F)(F)C(F)(F)C(F)(F)C(F)(F)C(F)(F)C(F)(F)F [PFOA, perfluorooctanoic acid]","Mean concentration relative to control, feature 466.0837@2.1187525",PFOA 50 μg/egg,1.0
same,"Mean concentration relative to control, feature 488.0753@4.419585",PFOA 50 μg/egg,1.0
same,"Mean concentration relative to control, feature 498.1003@2.1184251",PFOA 50 μg/egg,1.0
same,"Mean concentration relative to control, feature 507.1682@2.1238236",PFOA 50 μg/egg,1.0
same,"Mean concentration relative to control, feature 580.1426@3.0726147",PFOA 50 μg/egg,1.0
same,"Mean concentration relative to control, feature 582.1578@2.1747615",PFOA 50 μg/egg,1.0
same,"Mean concentration relative to control, feature 588.1751@2.1182237",PFOA 50 μg/egg,1.0
same,"Mean concentration relative to control, feature 594.1337@3.0724604",PFOA 50 μg/egg,1.0
same,"Mean concentration relative to control, feature 604.1486@2.1174603",PFOA 50 μg/egg,1.0
same,"Mean concentration relative to control, feature 623.183@2.1249466",PFOA 50 μg/egg,0.9
same,"Mean concentration relative to control, feature 668.2625@6.4379454",PFOA 50 μg/egg,1.0
same,"Mean concentration relative to control, feature 155.0353@0.6447272",PFOA 50 μg/egg,0.4*
same,"Mean concentration relative to control, feature 345.0497@1.1234403",PFOA 50 μg/egg,1.1
same,"Mean concentration relative to control, feature 337.0259@4.4213357",PFOA 50 μg/egg,1.0
same,"Mean concentration relative to control, feature 344.1427@2.1164653",PFOA 50 μg/egg,1.0
same,"Mean concentration relative to control, feature 331.184@6.373359",PFOA 50 μg/egg,0.9
same,"Mean concentration relative to control, feature 361.2026@5.6644735",PFOA 50 μg/egg,0.8
same,"Mean concentration relative to control, feature 134.0239@1.1350567",PFOA 250 μg/egg,0.9
same,"Mean concentration relative to control, feature 145.0538@3.072527",PFOA 250 μg/egg,1.1
same,"Mean concentration relative to control, feature 147.0328@3.0722888",PFOA 250 μg/egg,1.1
same,"Mean concentration relative to control, feature 160.0323@1.1950632",PFOA 250 μg/egg,1.1
same,"Mean concentration relative to control, feature 173.0488@3.0734746",PFOA 250 μg/egg,1.1
same,"Mean concentration relative to control, feature 176.0952@1.3890611",PFOA 250 μg/egg,0.5*
same,"Mean concentration relative to control, feature 178.0428@1.7582192",PFOA 250 μg/egg,1.0
same,"Mean concentration relative to control, feature 180.0048@4.421465",PFOA 250 μg/egg,1.0
same,"Mean concentration relative to control, feature 189.1159@1.9209185",PFOA 250 μg/egg,0.9
same,"Mean concentration relative to control, feature 197.0639@2.1181405",PFOA 250 μg/egg,1.0
same,"Mean concentration relative to control, feature 201.012@3.046474",PFOA 250 μg/egg,1.1
same,"Mean concentration relative to control, feature 202.0429@2.9548414",PFOA 250 μg/egg,1.0
same,"Mean concentration relative to control, feature 205.0533@4.421879",PFOA 250 μg/egg,1.0
same,"Mean concentration relative to control, feature 214.016@2.1190732",PFOA 250 μg/egg,0.9
same,"Mean concentration relative to control, feature 226.0107@4.421457",PFOA 250 μg/egg,1.0
same,"Mean concentration relative to control, feature 236.0816@3.0720985",PFOA 250 μg/egg,1.1
same,"Mean concentration relative to control, feature 241.0551@2.3510706",PFOA 250 μg/egg,1.0
same,"Mean concentration relative to control, feature 243.1118@2.1537287",PFOA 250 μg/egg,1.0
same,"Mean concentration relative to control, feature 244.9972@4.421603",PFOA 250 μg/egg,1.0
same,"Mean concentration relative to control, feature 245.1563@2.2907295",PFOA 250 μg/egg,0.9
same,"Mean concentration relative to control, feature 250.0981@3.072492",PFOA 250 μg/egg,1.1
same,"Mean concentration relative to control, feature 262.0978@2.7961144",PFOA 250 μg/egg,1.1
same,"Mean concentration relative to control, feature 263.0855@2.2847009",PFOA 250 μg/egg,1.0
same,"Mean concentration relative to control, feature 270.0441@1.1407775",PFOA 250 μg/egg,1.0
same,"Mean concentration relative to control, feature 278.0928@3.0723689",PFOA 250 μg/egg,1.1
same,"Mean concentration relative to control, feature 279.1248@2.796395",PFOA 250 μg/egg,1.2
same,"Mean concentration relative to control, feature 280.1425@2.730277",PFOA 250 μg/egg,1.0
same,"Mean concentration relative to control, feature 288.1166@2.9551322",PFOA 250 μg/egg,1.2
same,"Mean concentration relative to control, feature 289.1012@3.249983",PFOA 250 μg/egg,1.0
same,"Mean concentration relative to control, feature 289.173@7.5030584",PFOA 250 μg/egg,1.2
same,"Mean concentration relative to control, feature 294.1242@2.3692534",PFOA 250 μg/egg,1.0
same,"Mean concentration relative to control, feature 302.0508@3.0722616",PFOA 250 μg/egg,1.1
same,"Mean concentration relative to control, feature 305.1682@5.353517",PFOA 250 μg/egg,0.5***
same,"Mean concentration relative to control, feature 305.1684@5.2955093",PFOA 250 μg/egg,0.7**
same,"Mean concentration relative to control, feature 308.073@4.4211636",PFOA 250 μg/egg,1.0
same,"Mean concentration relative to control, feature 310.1181@1.5090439",PFOA 250 μg/egg,1.0
same,"Mean concentration relative to control, feature 316.0389@3.0725708",PFOA 250 μg/egg,1.1
same,"Mean concentration relative to control, feature 320.0626@3.0729218",PFOA 250 μg/egg,1.1
same,"Mean concentration relative to control, feature 325.1114@2.1190624",PFOA 250 μg/egg,1.1
same,"Mean concentration relative to control, feature 325.1115@2.3554378",PFOA 250 μg/egg,1.1
same,"Mean concentration relative to control, feature 333.1335@2.8639288",PFOA 250 μg/egg,0.9
same,"Mean concentration relative to control, feature 333.2005@6.5291867",PFOA 250 μg/egg,0.8*
same,"Mean concentration relative to control, feature 335.1866@4.508565",PFOA 250 μg/egg,0.9
same,"Mean concentration relative to control, feature 337.1651@1.8737898",PFOA 250 μg/egg,0.9
same,"Mean concentration relative to control, feature 344.1424@2.348947",PFOA 250 μg/egg,1.0
same,"Mean concentration relative to control, feature 348.0553@3.0730357",PFOA 250 μg/egg,1.1
same,"Mean concentration relative to control, feature 349.1651@2.4087605",PFOA 250 μg/egg,0.9
same,"Mean concentration relative to control, feature 357.1997@6.9691257",PFOA 250 μg/egg,0.9
same,"Mean concentration relative to control, feature 371.1513@3.0009465",PFOA 250 μg/egg,1.2
same,"Mean concentration relative to control, feature 375.1819@3.672254",PFOA 250 μg/egg,0.9
same,"Mean concentration relative to control, feature 394.167@3.9552917",PFOA 250 μg/egg,1.0
same,"Mean concentration relative to control, feature 414.1482@2.118972",PFOA 250 μg/egg,1.1
same,"Mean concentration relative to control, feature 466.0837@2.1187525",PFOA 250 μg/egg,1.1
same,"Mean concentration relative to control, feature 488.0753@4.419585",PFOA 250 μg/egg,1.0
same,"Mean concentration relative to control, feature 498.1003@2.1184251",PFOA 250 μg/egg,1.0
same,"Mean concentration relative to control, feature 507.1682@2.1238236",PFOA 250 μg/egg,1.0
same,"Mean concentration relative to control, feature 580.1426@3.0726147",PFOA 250 μg/egg,1.2
same,"Mean concentration relative to control, feature 582.1578@2.1747615",PFOA 250 μg/egg,1.2
same,"Mean concentration relative to control, feature 588.1751@2.1182237",PFOA 250 μg/egg,1.1
same,"Mean concentration relative to control, feature 594.1337@3.0724604",PFOA 250 μg/egg,1.2
same,"Mean concentration relative to control, feature 604.1486@2.1174603",PFOA 250 μg/egg,1.0
same,"Mean concentration relative to control, feature 623.183@2.1249466",PFOA 250 μg/egg,1.1
same,"Mean concentration relative to control, feature 668.2625@6.4379454",PFOA 250 μg/egg,1.0
same,"Mean concentration relative to control, feature 155.0353@0.6447272",PFOA 250 μg/egg,0.3*
same,"Mean concentration relative to control, feature 345.0497@1.1234403",PFOA 250 μg/egg,1.1
same,"Mean concentration relative to control, feature 337.0259@4.4213357",PFOA 250 μg/egg,1.0
same,"Mean concentration relative to control, feature 344.1427@2.1164653",PFOA 250 μg/egg,1.0
same,"Mean concentration relative to control, feature 331.184@6.373359",PFOA 250 μg/egg,0.7**
same,"Mean concentration relative to control, feature 361.2026@5.6644735",PFOA 250 μg/egg,0.9
